These are literature values, as cited in US20100204159A1, “ORGANIC COMPOUNDS AND THEIR USES” (priority 2006, published 2010).

The subject of the series is HCV. The following applies: ribavirin alone; Davis, Gastroenterology 118:S104-S114, 2000.

For the molecule `NC(=O)c1ncn([C@@H]2O[C@H](CO)[C@@H](O)[C@H]2O)n1` [Ribavirin, 1-β-D-ribofuranosyl-1-1,2,4-triazole-3-caroxamide], the “effect on serum levels of HCV-RNA” value is given as “does not lower serum levels of HCV-RNA” and the “patients in whom serum amino transferase levels are reduced to normal” value was 40 % of patients.
